Where two headings read alike, the source gives them in different places.
Assays:
human TLR7 = human TLR7 (Homo sapiens (Human), UniProt Q9NYK1); assay: TLR7 inhibition reporter assay (HEK-Blue SEAP); type: cell-based
human TLR8 = human TLR8 (Homo sapiens (Human), UniProt Q9NR97); assay: TLR8 inhibition reporter assay (HEK-Blue SEAP);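 also: SEAP driven by IFN-β minimal promoter carrying NF-κB and AP-1 sites, compounds dosed 0.05 nM to 50 µM for 22 h, inhibition scaled between agonist-plus-DMSO and reference-inhibitor wells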
human TLR9 = human TLR9 (Homo sapiens (Human), UniProt Q9NR96); assay: TLR9 inhibition reporter assay (HEK-Blue SEAP);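 also: SEAP driven by an IFN-β minimal promoter with NF-κB and AP-1 sites, read after 22 h, compounds dosed 0.05 nM–50 µM, inhibition scaled between agonist plus DMSO and reference-inhibitor wells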
[1] = HEK-Blue human TLR7 cells, gardiquimod 7.5 μM
[2] = read-out: TLR8 IC50, HEK-Blue human TLR8 cells, R848 15.9 μM
[3] = read-out: TLR9 IC50, HEK-Blue human TLR9 cells, ODN2006 5 nM
[4] = HEK-Blue cells overexpressing human TLR7, gardiquimod 7.5 μM stimulation, SEAP reporter
[5] = read-out: TLR8 IC50, HEK-Blue cells overexpressing human TLR8, R848 15.9 μM stimulation, SEAP reporter
[6] = read-out: TLR9 IC50, HEK-Blue cells overexpressing human TLR9, ODN2006 5 nM stimulation, SEAP reporter
[7] = HEK-Blue cells overexpressing human TLR7, SEAP reporter, gardiquimod 7.5 μM
[8] = read-out: TLR8 IC50, HEK-Blue cells overexpressing human TLR8, SEAP reporter, R848 15.9 μM
[9] = read-out: TLR9 IC50, HEK-Blue cells overexpressing human TLR9, SEAP reporter, ODN2006 5 nM

Chain of human TLR8 (Q9NR97 27-1041): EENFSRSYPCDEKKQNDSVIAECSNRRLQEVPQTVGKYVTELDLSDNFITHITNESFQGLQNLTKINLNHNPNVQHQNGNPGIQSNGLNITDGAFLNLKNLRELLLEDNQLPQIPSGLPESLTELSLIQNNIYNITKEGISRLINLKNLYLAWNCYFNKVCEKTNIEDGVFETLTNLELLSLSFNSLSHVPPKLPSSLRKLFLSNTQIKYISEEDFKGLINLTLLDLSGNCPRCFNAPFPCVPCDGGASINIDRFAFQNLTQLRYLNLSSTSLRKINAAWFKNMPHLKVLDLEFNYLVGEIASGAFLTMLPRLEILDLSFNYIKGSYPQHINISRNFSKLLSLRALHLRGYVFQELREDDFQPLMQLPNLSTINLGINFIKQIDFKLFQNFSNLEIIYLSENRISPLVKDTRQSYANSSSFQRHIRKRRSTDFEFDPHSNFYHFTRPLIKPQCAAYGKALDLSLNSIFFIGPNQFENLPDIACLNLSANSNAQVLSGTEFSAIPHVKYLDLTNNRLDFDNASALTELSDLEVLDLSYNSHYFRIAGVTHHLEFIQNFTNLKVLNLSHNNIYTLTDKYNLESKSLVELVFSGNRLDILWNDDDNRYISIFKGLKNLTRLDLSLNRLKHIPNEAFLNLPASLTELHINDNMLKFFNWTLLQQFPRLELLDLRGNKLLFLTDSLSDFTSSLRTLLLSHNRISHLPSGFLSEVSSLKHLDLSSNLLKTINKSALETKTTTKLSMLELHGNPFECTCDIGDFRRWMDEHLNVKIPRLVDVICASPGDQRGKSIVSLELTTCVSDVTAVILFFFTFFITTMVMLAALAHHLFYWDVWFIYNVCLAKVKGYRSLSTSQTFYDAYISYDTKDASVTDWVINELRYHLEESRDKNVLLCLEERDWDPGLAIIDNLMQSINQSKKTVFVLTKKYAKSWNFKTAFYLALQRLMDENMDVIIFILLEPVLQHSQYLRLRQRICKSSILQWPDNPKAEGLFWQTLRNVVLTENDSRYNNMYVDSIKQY
Chain of human TLR9 (Q9NR96 26-1032): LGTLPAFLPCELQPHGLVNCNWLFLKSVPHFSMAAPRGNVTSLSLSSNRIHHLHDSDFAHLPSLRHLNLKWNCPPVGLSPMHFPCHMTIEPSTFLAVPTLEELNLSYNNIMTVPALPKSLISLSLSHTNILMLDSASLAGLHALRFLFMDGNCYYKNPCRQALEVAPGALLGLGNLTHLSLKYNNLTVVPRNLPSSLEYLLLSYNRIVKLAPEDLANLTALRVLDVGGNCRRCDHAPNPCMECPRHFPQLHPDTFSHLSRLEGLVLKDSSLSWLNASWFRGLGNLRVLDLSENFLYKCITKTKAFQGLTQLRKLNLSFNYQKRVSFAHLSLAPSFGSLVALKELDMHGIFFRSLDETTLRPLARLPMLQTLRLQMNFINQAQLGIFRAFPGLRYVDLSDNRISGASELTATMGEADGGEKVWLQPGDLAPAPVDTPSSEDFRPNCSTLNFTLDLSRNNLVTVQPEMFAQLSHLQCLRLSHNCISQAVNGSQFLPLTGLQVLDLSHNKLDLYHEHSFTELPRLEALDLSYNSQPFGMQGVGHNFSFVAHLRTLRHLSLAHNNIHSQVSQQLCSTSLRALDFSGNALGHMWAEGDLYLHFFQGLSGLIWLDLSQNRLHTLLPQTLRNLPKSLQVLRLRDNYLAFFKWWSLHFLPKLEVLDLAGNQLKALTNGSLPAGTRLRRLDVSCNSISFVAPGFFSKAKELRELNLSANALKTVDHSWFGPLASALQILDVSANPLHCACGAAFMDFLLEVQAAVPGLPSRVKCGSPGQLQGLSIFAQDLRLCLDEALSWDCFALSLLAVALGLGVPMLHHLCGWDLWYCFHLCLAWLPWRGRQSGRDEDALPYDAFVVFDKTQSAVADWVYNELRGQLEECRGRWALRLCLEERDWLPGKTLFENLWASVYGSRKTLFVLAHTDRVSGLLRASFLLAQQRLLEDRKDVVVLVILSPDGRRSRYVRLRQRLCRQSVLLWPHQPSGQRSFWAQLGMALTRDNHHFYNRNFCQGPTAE
Chain of human TLR7 (Q9NYK1 27-1049): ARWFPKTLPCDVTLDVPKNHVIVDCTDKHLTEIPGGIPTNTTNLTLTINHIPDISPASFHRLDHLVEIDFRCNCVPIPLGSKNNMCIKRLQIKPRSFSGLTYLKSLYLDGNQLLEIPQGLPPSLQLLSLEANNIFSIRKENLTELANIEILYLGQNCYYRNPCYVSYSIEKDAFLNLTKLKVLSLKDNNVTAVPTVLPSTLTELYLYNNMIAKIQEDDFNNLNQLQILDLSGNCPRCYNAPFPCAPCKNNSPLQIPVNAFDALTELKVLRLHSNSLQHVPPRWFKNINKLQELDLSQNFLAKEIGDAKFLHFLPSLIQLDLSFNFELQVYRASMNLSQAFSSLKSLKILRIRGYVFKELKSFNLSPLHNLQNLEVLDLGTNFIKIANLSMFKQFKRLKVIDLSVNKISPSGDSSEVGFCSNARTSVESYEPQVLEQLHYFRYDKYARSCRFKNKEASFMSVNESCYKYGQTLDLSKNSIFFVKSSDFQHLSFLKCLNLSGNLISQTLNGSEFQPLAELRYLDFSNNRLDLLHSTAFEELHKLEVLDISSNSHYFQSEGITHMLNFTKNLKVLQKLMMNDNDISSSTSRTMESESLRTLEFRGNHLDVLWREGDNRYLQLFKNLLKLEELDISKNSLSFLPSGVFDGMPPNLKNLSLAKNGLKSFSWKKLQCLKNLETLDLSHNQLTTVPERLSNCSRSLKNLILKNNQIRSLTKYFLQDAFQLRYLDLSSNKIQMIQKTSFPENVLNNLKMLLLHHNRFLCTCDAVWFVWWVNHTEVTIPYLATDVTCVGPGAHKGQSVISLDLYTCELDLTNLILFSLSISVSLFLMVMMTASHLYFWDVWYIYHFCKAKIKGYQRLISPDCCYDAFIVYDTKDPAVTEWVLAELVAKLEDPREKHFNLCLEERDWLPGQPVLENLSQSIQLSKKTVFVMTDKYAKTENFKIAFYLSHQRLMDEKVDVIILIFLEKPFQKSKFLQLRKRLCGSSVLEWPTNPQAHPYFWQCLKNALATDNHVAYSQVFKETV

SMILES	IC50 (human TLR7; [4])	IC50 (human TLR8; [5])	IC50 (human TLR9; [6])	IC50 (human TLR7; [7])	IC50 (human TLR8; [8])	IC50 (human TLR9; [9])	also measured
Cc1c(-c2[nH]c3ccc(N4CCN(C(=O)CN(C)C)C[C@@H]4C)nc3c2C(C)C)cn2ncnc2c1C [Example 801]							IC50 (human TLR7; [1]): 0.57 nM; IC50 (human TLR8; [2]): 0.56 nM; IC50 (human TLR9; [3]): 11000 nM
CC(C)c1c(-c2cn(C)c3ncccc23)[nH]c2ccc(C3CCC(N(C)CC(=O)N(C)C)CC3)nc12 (stereo not drawn) [Example 200]	1.8 nM	8.5 nM	773 nM				
Cc1c(-c2[nH]c3ccc(C4CCC(N5CCC5)CC4)nc3c2C(C)C)cn2ncnc2c1C (stereo not drawn) [Example 1051]							IC50 (human TLR7; [1]): 0.41 nM; IC50 (human TLR8; [2]): 1.5 nM; IC50 (human TLR9; [3]): 1910 nM
CC(C)c1c(-c2cn(C)c3ncccc23)[nH]c2ccc(N3CC(NC4CCOCC4)C3)nc12 [Example 33]	6.5 nM	1.9 nM	1920 nM				
COc1cc(-c2[nH]c3ccc(C4CCC(N5CCC6(COC6)C5)CC4)nc3c2C(C)C)cn2ncnc12 (stereo not drawn) [Example 1068]							IC50 (human TLR7; [1]): 0.88 nM; IC50 (human TLR8; [2]): 1.8 nM; IC50 (human TLR9; [3]): 2960 nM
Cc1cc(-c2[nH]c3ccc(C4CCC(NC5COC5)CC4)nc3c2C(C)C)cn2ncnc12 (stereo not drawn) [Example 284]	3 nM	15 nM	4040 nM				
COc1cc(-c2[nH]c3ccc(CCC4CN(CCS(C)(=O)=O)C4)nc3c2C(C)C)cn2ncnc12 [Example 698]				12 nM	28 nM	1000 nM	
Cc1c(-c2[nH]c3ccc(C4CCC(N(C)C(=O)CN(C)C)CC4)nc3c2C(C)C)cn2ncnc2c1C (stereo not drawn) [Example 396]				1.7 nM	17 nM	1530 nM	
COc1cc(-c2[nH]c3ccc(C4CCC(NC5CCOC(C)(C)C5)C4)nc3c2C(C)C)cn2ncnc12 (stereo not drawn) [Example 729]				1.1 nM	1.3 nM	1940 nM	
COc1cc(-c2[nH]c3cc(C)c(C4CCC(N)CC4)nc3c2C(C)C)cn2ncnc12 (stereo not drawn) [Example 323]	1.1 nM	31 nM	1360 nM				
COCc1cc(-c2[nH]c3ccc(C4CCC(NC5COC5)CC4)nc3c2C(C)C)cn2ncnc12 (stereo not drawn) [Example 214]	3.9 nM	6.3 nM	833 nM				
Cc1cc(-c2[nH]c3ccc(C4CCN(CC(=O)N(C)C)CC4)nc3c2C(C)C)cn(C)c1=O [Example 529]				2.9 nM	12 nM	1830 nM	
Cc1c(-c2[nH]c3ccc(C4CCC(N5CCC[C@H]5CO)CC4)nc3c2C(C)C)cn2ncnc2c1C (stereo partly drawn) [Example 392]	3.2 nM	6.1 nM	1750 nM				
COc1cc(-c2[nH]c3ccc(N4CCN(CC(C)C)CC4)nc3c2C(C)C)cn2ncnc12 [Example 109]	3.6 nM	1.3 nM	8010 nM				
Cc1c(-c2[nH]c3ccc(N4C[C@@H](C)N(C(=O)CCN5CC6(CCO6)C5)C[C@@H]4C)nc3c2C(C)C)cn2ncnc2c1C [Example 958]							IC50 (human TLR7; [1]): 0.27 nM; IC50 (human TLR8; [2]): 2.3 nM; IC50 (human TLR9; [3]): 11200 nM
Cc1ncc(CN(C)C2CCC(c3ccc4[nH]c(-c5cn6ncnc6c(C)c5C)c(C(C)C)c4n3)CC2)cn1 (stereo not drawn) [Example 402]				31 nM	43 nM	5150 nM	
COc1cc(-c2[nH]c3ccc(C4CCC(N(C)C5CC5)CC4)nc3c2C(C)C)cn2ncnc12 (stereo not drawn) [Example 171]	0.45 nM	1.8 nM	560 nM				
Cc1c(-c2[nH]c3ccc(N4CCN(C(=O)CCN(C)C)[C@@H](C)C4)nc3c2C(C)C)cn2ncnc2c1C [Example 790]				0.42 nM	0.85 nM	8810 nM	
CCCCN(C)CC(=O)N1CCN(c2ccc3[nH]c(-c4cn5ncnc5c(C)c4C)c(C(C)C)c3n2)CC1 [Example 874]							IC50 (human TLR7; [1]): 1.2 nM; IC50 (human TLR8; [2]): 5.3 nM; IC50 (human TLR9; [3]): 15500 nM
CNC(=O)CN(C)C1CCC(c2ccc3[nH]c(-c4cc(OC)c5ncnn5c4)c(C(C)C)c3n2)CC1 (stereo not drawn) [Example 228]	3.3 nM	23 nM	2390 nM				

SMILES	IC50 (human TLR7; [4])	IC50 (human TLR8; [5])	IC50 (human TLR9; [6])	IC50 (human TLR7; [7])	IC50 (human TLR8; [8])	IC50 (human TLR9; [9])	also measured
Cc1cc(-c2[nH]c3cc(C)c(C4CCNCC4)nc3c2C(C)C)cc(C)n1 [Example 522]				2.6 nM	495 nM	144 nM	
CC(C)c1c(-c2cn(C)c3ncccc23)[nH]c2ccc(CCC3CN(CCS(C)(=O)=O)C3)nc12 [Example 684]				14 nM	13 nM	365 nM	
Cc1c(-c2[nH]c3ccc(N4C[C@H](C)N(C(=O)CCN(C)C)C[C@@H]4C)nc3c2C(C)C)cn2ncnc2c1C [Example 789]				3.2 nM	3.7 nM	13300 nM	
Cc1c(-c2[nH]c3ccc(N4C5CNCC4COC5)nc3c2C(C)C)cn2ncnc2c1C [Example 972]							IC50 (human TLR7; [1]): 3.3 nM; IC50 (human TLR8; [2]): 3.1 nM; IC50 (human TLR9; [3]): 6920 nM
Cc1c(-c2[nH]c3ccc(N4C[C@@H](C)N(CC(N)=O)[C@@H](C)C4)nc3c2C(C)C)cn2ncnc2c1C [Example 867]							IC50 (human TLR7; [1]): 4.5 nM; IC50 (human TLR8; [2]): 11 nM; IC50 (human TLR9; [3]): > 50000 nM
Cc1c(-c2[nH]c3ccc(C4CCC(NC5CC5)CC4)nc3c2C(C)C)cn2ncnc2c1C (stereo not drawn) [Example 426]				2.5 nM	2.6 nM	1400 nM	
CC(C)c1c(-c2cn(C)c3ncccc23)[nH]c2ccc(C3CCC(NC4COC4)CC3)nc12 (stereo not drawn) [Example 185]	38 nM	110 nM	10300 nM				
Cc1c(-c2[nH]c3ccc(N4CC5(CN(CCC(N)=O)C5)C4)nc3c2C(C)C)cn2ncnc2c1C [Example 1005]							IC50 (human TLR7; [1]): 4.4 nM; IC50 (human TLR8; [2]): 7.4 nM; IC50 (human TLR9; [3]): 1660 nM
CC(C)c1c(-c2cn(C)c3ncccc23)[nH]c2ccc(C3CCC(NCC(=O)N(C)C)CC3)nc12 (stereo not drawn) [Example 182]	0.48 nM	1.1 nM	301 nM				
COc1cc(-c2[nH]c3ccc(C4CC(NC(=O)CN(C)C)C4)nc3c2C(C)C)cn2ncnc12 (stereo not drawn) [Example 638]				2.9 nM	7.3 nM	1270 nM	
Cc1c(-c2[nH]c3ccc(N4CCN(CCC(N)=O)C[C@@H]4C)nc3c2C(C)C)cn2ncnc2c1C [Example 804]							IC50 (human TLR7; [1]): 1.2 nM; IC50 (human TLR8; [2]): 0.56 nM; IC50 (human TLR9; [3]): 18100 nM
Cc1cc2[nH]c(-c3cc(C)c4ncnn4c3)c(C(C)C)c2nc1C1CCN(C(=O)CN(C)C)CC1 [Example 586]				0.75 nM	98 nM	2900 nM	
Cc1cc(-c2[nH]c3ccc(C4CCN(CC(C)(C)O)CC4)nc3c2C(C)C)cn2ncnc12 [Example 547]				0.27 nM	0.55 nM	789 nM	
Cc1c(-c2[nH]c3ccc(C4CCC(N5CCC(F)(F)CC5)CC4)nc3c2C(C)C)cn2ncnc2c1C (stereo not drawn) [Example 385]	22 nM	46 nM	11200 nM				
[2H]C1([2H])N(C(=O)CN(C)C)C([2H])([2H])C([2H])([2H])N(c2ccc3[nH]c(-c4cn5ncnc5c(C)c4C)c(C(C)C)c3n2)C1([2H])[2H] (single isomer, unassigned) [Example 858]							IC50 (human TLR7; [1]): 1.1 nM; IC50 (human TLR8; TLR8 IC50, HEK-Blue human TLR8 cells, R848 15.9 μM): 1.3 nM; IC50 (human TLR9; TLR9 IC50, HEK-Blue human TLR9 cells, ODN2006 5 nM): 7130 nM
CNC1CCC(c2ccc3[nH]c(-c4cn(C)c5nccnc45)c(C(C)C)c3n2)CC1 (stereo not drawn) [Example 297]	8.4 nM	15 nM	885 nM				
COc1cc(-c2[nH]c3ccc(C4CCC(N5CCC[C@H]5CO)CC4)nc3c2C(C)C)cn2ncnc12 (stereo partly drawn) [Example 173]	2 nM	10 nM	578 nM				
Cc1c(-c2[nH]c3ccc(N4[C@H](C)CN(CCCS(C)(=O)=O)C[C@H]4C)nc3c2C(C)C)cn2ncnc2c1C [Example 869]							IC50 (human TLR7; [1]): 1.9 nM; IC50 (human TLR8; [2]): 34 nM; IC50 (human TLR9; [3]): 40300 nM
Cc1c(-c2[nH]c3cc(F)c(C4CCC(NC5CCOCC5)CC4)nc3c2C(C)C)cn2ncnc2c1C (stereo not drawn) [Example 505]				3.5 nM	4.9 nM	7600 nM	

Source: patent US10544143B2, “4-azaindole compounds” (BRISTOL-MYERS SQUIBB COMPANY, priority 2017, dated 2020)
